Measured values taken from ChEMBL document CHEMBL1201862, “PubChem BioAssay data set” (2004).
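Assay format: 96-well plates, 48-hour exposure. Here, GI50 denotes the concentration required for 50% inhibition of growth.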 Active and inactive are the calls of the source. No stated cut-off is given here; in the data, active = GI50 up to about 1.1 µM and inactive = higher.

Legend:
Test in all cases: DTP human tumour cell line panel, 48 h
HL-60 = test system: HL-60
LOX IMVI = test system: LOX IMVI
HCC 2998 = test system: HCC 2998
KM12 = test system: KM12
NCI-H522 = test system: NCI-H522
DU-145 = test system: DU-145
786-0 = test system: 786-0
MOLT-4 = test system: MOLT-4
SF-295 = test system: SF-295
MDA-MB-435 = test system: MDA-MB-435
MDA-N = test system: MDA-N
SF-539 = test system: SF-539
SF-268 = test system: SF-268
SN12C = test system: SN12C
Hs-578T = test system: Hs-578T
T47D = test system: T47D
CCRF-CEM = test system: CCRF-CEM
OVCAR-8 = test system: OVCAR-8
SK-MEL-2 = test system: SK-MEL-2
Malme-3M = test system: Malme-3M

SMILES	GI50 (HL-60)	GI50 (LOX IMVI)	GI50 (HCC 2998)	GI50 (KM12)	GI50 (NCI-H522)	GI50 (DU-145)	GI50 (786-0)	GI50 (MOLT-4)	GI50 (SF-295)	GI50 (MDA-MB-435)	GI50 (MDA-N)	GI50 (SF-539)	GI50 (SF-268)	GI50 (SN12C)	GI50 (Hs-578T)	GI50 (T47D)	GI50 (CCRF-CEM)	GI50 (OVCAR-8)	GI50 (SK-MEL-2)	GI50 (Malme-3M)
C=CCC1(c2ccc(OC)cc2)C=CC(=O)CC1 (stereo unspecified)	38.9 µM (inactive)	> 100 µM (inactive)	> 100 µM (inactive)	> 100 µM (inactive)	77.1 µM (inactive)	> 100 µM (inactive)	> 100 µM (inactive)	28.6 µM (inactive)	> 100 µM (inactive)	66.4 µM (inactive)	65.8 µM (inactive)	> 100 µM (inactive)	> 100 µM (inactive)	> 100 µM (inactive)	28.5 µM (inactive)	> 100 µM (inactive)	24.3 µM (inactive)	> 100 µM (inactive)	–	–
CSc1ccc(NC(=O)CCl)cc1	3.33 µM (inactive)	5.15 µM (inactive)	2.18 µM (inactive)	> 10 µM (inactive)	1.95 µM (inactive)	> 10 µM (inactive)	6.38 µM (inactive)	3.4 µM (inactive)	2.58 µM (inactive)	4.03 µM (inactive)	4.84 µM (inactive)	3.95 µM (inactive)	> 10 µM (inactive)	6.82 µM (inactive)	3.1 µM (inactive)	> 10 µM (inactive)	2.43 µM (inactive)	3.51 µM (inactive)	1.81 µM (inactive)	–
CCC(=O)C(c1ccccc1)c1ccccn1 (stereo unspecified)	> 100 µM (inactive)	> 100 µM (inactive)	> 100 µM (inactive)	> 100 µM (inactive)	> 100 µM (inactive)	> 100 µM (inactive)	> 100 µM (inactive)	–	> 100 µM (inactive)	> 100 µM (inactive)	> 100 µM (inactive)	–	> 100 µM (inactive)	> 100 µM (inactive)	> 100 µM (inactive)	> 100 µM (inactive)	> 100 µM (inactive)	> 100 µM (inactive)	> 100 µM (inactive)	> 100 µM (inactive)
COc1cc(C2S/C(=C/c3ccccc3)C(=O)N2c2ccc(Cl)cc2)cc(OC)c1OC (stereo unspecified)	23.2 µM (inactive)	6.03 µM (inactive)	36.6 µM (inactive)	11.3 µM (inactive)	0.656 µM (active)	54.2 µM (inactive)	> 100 µM (inactive)	5.79 µM (inactive)	7.64 µM (inactive)	1.52 µM (inactive)	1.58 µM (inactive)	–	8.24 µM (inactive)	39.1 µM (inactive)	32.3 µM (inactive)	0.705 µM (active)	4.4 µM (inactive)	22.1 µM (inactive)	7.98 µM (inactive)	23.7 µM (inactive)
CCCn1c(C23CC4CC(CC(C4)C2)C3)nc2ccc(Cl)cc2c1=O	21.6 µM (inactive)	36.6 µM (inactive)	–	31.9 µM (inactive)	47.2 µM (inactive)	27.9 µM (inactive)	34.2 µM (inactive)	33.7 µM (inactive)	46.6 µM (inactive)	36.6 µM (inactive)	33 µM (inactive)	> 100 µM (inactive)	> 100 µM (inactive)	35.2 µM (inactive)	63.2 µM (inactive)	25.8 µM (inactive)	45.5 µM (inactive)	44.4 µM (inactive)	47.1 µM (inactive)	> 100 µM (inactive)
COc1ccccc1/C=C/c1nc2ccccc2o1	–	> 10 µM (inactive)	> 10 µM (inactive)	> 10 µM (inactive)	> 10 µM (inactive)	> 10 µM (inactive)	> 10 µM (inactive)	> 10 µM (inactive)	> 10 µM (inactive)	> 10 µM (inactive)	> 10 µM (inactive)	> 10 µM (inactive)	> 10 µM (inactive)	> 10 µM (inactive)	> 10 µM (inactive)	> 10 µM (inactive)	> 10 µM (inactive)	> 10 µM (inactive)	> 10 µM (inactive)	> 10 µM (inactive)
N#CC(C#N)=C1C(=Cc2ccc(OCCCCCCCCCCSSCCCCCCCCCCOc3ccc(C=C4C(=C(C#N)C#N)c5ccccc5C4=C(C#N)C#N)cc3)cc2)C(=C(C#N)C#N)c2ccccc21	0.0465 µM (active)	18.5 µM (inactive)	14.7 µM (inactive)	25.4 µM (inactive)	17.8 µM (inactive)	22 µM (inactive)	21.8 µM (inactive)	23.6 µM (inactive)	20.1 µM (inactive)	38.7 µM (inactive)	34.8 µM (inactive)	16.1 µM (inactive)	19.5 µM (inactive)	–	20.4 µM (inactive)	31.6 µM (inactive)	–	31 µM (inactive)	25.8 µM (inactive)	–
CC(=O)[C@]12OC(=O)C3=C1[C@H](CC[C@@H]3C)[C@@H](C)C[C@H]2C=C(C)C	7.71 µM (inactive)	7.93 µM (inactive)	–	7.62 µM (inactive)	5.36 µM (inactive)	8.09 µM (inactive)	8.55 µM (inactive)	10 µM (inactive)	6.4 µM (inactive)	7.93 µM (inactive)	7.59 µM (inactive)	9.14 µM (inactive)	8.47 µM (inactive)	8.69 µM (inactive)	8.18 µM (inactive)	6.44 µM (inactive)	9.44 µM (inactive)	8.49 µM (inactive)	7.82 µM (inactive)	–
C=Cc1c(C)c(OC)cc2c1Oc1ccc(OC)c(C)c1CC2	> 100 µM (inactive)	–	> 100 µM (inactive)	> 100 µM (inactive)	88.5 µM (inactive)	> 100 µM (inactive)	> 100 µM (inactive)	> 100 µM (inactive)	> 100 µM (inactive)	76 µM (inactive)	> 100 µM (inactive)	> 100 µM (inactive)	> 100 µM (inactive)	> 100 µM (inactive)	> 100 µM (inactive)	> 100 µM (inactive)	> 100 µM (inactive)	> 100 µM (inactive)	> 100 µM (inactive)	> 100 µM (inactive)
COC(OC)[C@@H]1OC[C@@H](O)[C@@H]1n1cnc2c(N)ncnc21	–	> 100 µM (inactive)	> 100 µM (inactive)	> 100 µM (inactive)	> 100 µM (inactive)	> 100 µM (inactive)	> 100 µM (inactive)	> 100 µM (inactive)	> 100 µM (inactive)	> 100 µM (inactive)	> 100 µM (inactive)	> 100 µM (inactive)	> 100 µM (inactive)	> 100 µM (inactive)	> 100 µM (inactive)	> 100 µM (inactive)	> 100 µM (inactive)	–	> 100 µM (inactive)	> 100 µM (inactive)
C1CCCCC2(CCCCCCCCC3(CCC1)SCCS3)SCCS2	> 100 µM (inactive)	> 100 µM (inactive)	> 100 µM (inactive)	> 100 µM (inactive)	> 100 µM (inactive)	> 100 µM (inactive)	> 100 µM (inactive)	–	> 100 µM (inactive)	> 100 µM (inactive)	> 100 µM (inactive)	> 100 µM (inactive)	> 100 µM (inactive)	> 100 µM (inactive)	> 100 µM (inactive)	> 100 µM (inactive)	–	> 100 µM (inactive)	> 100 µM (inactive)	> 100 µM (inactive)
Cc1cc(N(CCC#N)CCC#N)ccc1/C=N/NC(=O)c1cc(Cl)ccc1O	69.2 µM (inactive)	–	> 100 µM (inactive)	–	37.3 µM (inactive)	> 100 µM (inactive)	> 100 µM (inactive)	36.9 µM (inactive)	54.7 µM (inactive)	> 100 µM (inactive)	> 100 µM (inactive)	> 100 µM (inactive)	72.6 µM (inactive)	> 100 µM (inactive)	59.7 µM (inactive)	> 100 µM (inactive)	> 100 µM (inactive)	> 100 µM (inactive)	> 100 µM (inactive)	> 100 µM (inactive)
Cc1nc(C)c(N2CCN(Cc3ccccc3)CC2)c(O)n1	> 100 µM (inactive)	> 100 µM (inactive)	> 100 µM (inactive)	> 100 µM (inactive)	> 100 µM (inactive)	> 100 µM (inactive)	> 100 µM (inactive)	> 100 µM (inactive)	> 100 µM (inactive)	> 100 µM (inactive)	> 100 µM (inactive)	> 100 µM (inactive)	> 100 µM (inactive)	> 100 µM (inactive)	> 100 µM (inactive)	> 100 µM (inactive)	> 100 µM (inactive)	> 100 µM (inactive)	–	> 100 µM (inactive)
O=C(O)C(O)C(O)C(O)C(O)c1nc2ccccc2s1 (stereo unspecified)	17.6 µM (inactive)	16.9 µM (inactive)	–	24.7 µM (inactive)	12.3 µM (inactive)	16.8 µM (inactive)	16.8 µM (inactive)	–	15.6 µM (inactive)	17.3 µM (inactive)	17.1 µM (inactive)	17.9 µM (inactive)	14.9 µM (inactive)	18.7 µM (inactive)	16.7 µM (inactive)	19.5 µM (inactive)	3.53 µM (inactive)	18.5 µM (inactive)	19.2 µM (inactive)	15.5 µM (inactive)
Cc1cnc2nc(-c3sccc3C)cc(O)c2c1	–	7.83 µM (inactive)	6.07 µM (inactive)	3.1 µM (inactive)	1.12 µM (active)	4.74 µM (inactive)	4.1 µM (inactive)	6.18 µM (inactive)	2.26 µM (inactive)	0.342 µM (active)	0.361 µM (active)	5.81 µM (inactive)	10.9 µM (inactive)	10.2 µM (inactive)	2.3 µM (inactive)	> 100 µM (inactive)	1.6 µM (inactive)	4.06 µM (inactive)	3.4 µM (inactive)	1.37 µM (inactive)
